Experimental data reported in EP0450065A1, “ANTIVIRAL AGENT” (priority 1988, dated 1990).
Where “and” joins values, the source holds several entries; their conditions need not be identical. Identical values can stand only once.

Assays:
Assay in all cases: 50% Tissue culture infective dose (TCID50), Read-Munch method, negative logarithm of virus dilution
Type in all cases: cell-based
[1] = test system: herpes simplex virus type 1 (KOS strain); parameters: key to Cytopathic effect [CPE] (5days) △TCID50 / Cytopathic effect [CPE] (3days) △TCID50: difference from control TCID50, in negative log of virus dilution; details: 200 μg/ml; HSV-1 (KOS); Example 7; difference from control
[2] = test system: herpes simplex virus type 1 (HF strain); details: for Cytopathic effect [CPE] (3days) △TCID50 / Cytopathic effect [CPE] (5days) △TCID50 / Cytopathic effect [CPE] (3days) ΔTCID50 / Cytopathic effect [CPE] (6days) ΔTCID50: difference from control
Protocol: In vitro antiviral activity of Compound A against herpes simplex virus type 1 (HF strain) Compound A was tested for antiviral effect by the following two methods.
(§1) The amount of virus infecting 50% of tissues (TCID₅₀) was determined by the Read-Munch method and expressed in negative logarithm of the maximum radio of dilution of virus. The difference of the amount thus determined from the amount found in the control (omitting the treatment with a chemical) was reported as ΔTCID₅₀. A sample whose ΔCPE's found on the last day of observation and on each of the days spent for the observation exceeded 1.0 was evaluated as effective.
In vitro antiviral effect of Compound A against herpes simplex virus type 1 (HF strain) The test was carried out by following the procedure of Example 3.

[3] = test system: herpes simplex virus type 2 (169 strain); parameters: key to Cytopathic effect [CPE] (5days) △TCID50 / Cytopathic effect [CPE] (6days) △TCID50 / Cytopathic effect [CPE] (3days) △TCID50: difference in -log TCID50 from untreated control; key to Cytopathic effect [CPE] (5days) TCID50 / Cytopathic effect [CPE] (3days) TCID50 / Cytopathic effect [CPE] (6days) TCID50: negative log of maximum virus dilution infecting 50% of tissues; details: HSV-2 (169); for Cytopathic effect [CPE] (3days) △TCID50 / Cytopathic effect [CPE] (5days) △TCID50 / Cytopathic effect [CPE] (6days) △TCID50: difference from control
Protocol: as §1
In vitro antiviral activity of Compound A against herpes simplex virus type 2 (169 strain) The test was carried out by following the procedure of Example 3.

[4] = 10 μg/ml, HSV-1 (HF), Example 3
[5] = 20 μg/ml, HSV-1 (HF), Example 3
[6] = 50 μg/ml, HSV-1 (HF), Example 3
[7] = 100 μg/ml, HSV-1 (HF strain), Example 5
[8] = 100 μg/ml, HSV-1 (HF), Example 3
[9] = 200 μg/ml, HSV-1 (HF strain), Example 5

In the case of K₅BW₁₂O₄₀.15H₂O [Compound A], the “Cytopathic effect [CPE] (3days) △TCID50” value [1] is reported as 2.0, the “Cytopathic effect [CPE] (5days) △TCID50” value [1] is reported as 2.5 and the “Cytopathic effect [CPE] (3days) TCID50” value ([2]; 5 μg/ml, HSV-1 (HF), Example 3) is reported as 5.5. The “Cytopathic effect [CPE] (5days) TCID50” value ([2]; 5 μg/ml, HSV-1 (HF), Example 3) was 5.7, the “Cytopathic effect [CPE] (3days) △TCID50” value ([2]; 5 μg/ml, HSV-1 (HF), Example 3) was 0.5 and the “Cytopathic effect [CPE] (5days) △TCID50” value ([2]; 5 μg/ml, HSV-1 (HF), Example 3) was 0.3. The “Cytopathic effect [CPE] (3days) TCID50” value [2, 4] was 5.7, the “Cytopathic effect [CPE] (5days) TCID50” value [2, 4] was 5.7 and the “Cytopathic effect [CPE] (3days) △TCID50” value [2, 4] was 0.3. For the same substance, the “Cytopathic effect [CPE] (5days) △TCID50” value [2, 4] was 0.3, the “Cytopathic effect [CPE] (3days) TCID50” value [2, 5] was 5.7 and the “Cytopathic effect [CPE] (5days) TCID50” value [2, 5] was 5.7. The “Cytopathic effect [CPE] (3days) △TCID50” value [2, 5] was 0.3, the “Cytopathic effect [CPE] (5days) △TCID50” value [2, 5] was 0.3 and the “Cytopathic effect [CPE] (3days) TCID50” value [2, 6] was 5.7. The “Cytopathic effect [CPE] (5days) TCID50” value [2, 6] was 5.7, the “Cytopathic effect [CPE] (3days) △TCID50” value [2, 6] was 0.3 and the “Cytopathic effect [CPE] (5days) △TCID50” value [2, 6] was 0.3. For the same substance, the “Cytopathic effect [CPE] (3days) TCID50” value [2, 7] was 4.7, the “Cytopathic effect [CPE] (6days) TCID50” value [2, 7] was 5.0 and the “Cytopathic effect [CPE] (3days) ΔTCID50” value [2, 7] was 1.6. The “Cytopathic effect [CPE] (6days) ΔTCID50” value [2, 7] was 1.3, the “Cytopathic effect [CPE] (3days) TCID50” value [2, 8] was 5.3 and the “Cytopathic effect [CPE] (5days) TCID50” value [2, 8] was 5.3. The “Cytopathic effect [CPE] (3days) △TCID50” value [2, 8] was 0.7, the “Cytopathic effect [CPE] (5days) △TCID50” value [2, 8] was 0.3 and the “Cytopathic effect [CPE] (3days) TCID50” value [2, 9] was less than 3.5. The “Cytopathic effect [CPE] (6days) TCID50” value [2, 9] was less than 3.5, the “Cytopathic effect [CPE] (3days) ΔTCID50” value [2, 9] was greater than 2.8 and the “Cytopathic effect [CPE] (6days) ΔTCID50” value [2, 9] was > 2.8 and >2.5. The ΔTCID₅₀ ([2]; varying concentrations of from 5 to 100 µg/ml, fifth day of observation, HSV-1 (HF), Example 3) was 0.3, the “Cytopathic effect [CPE] (3days) TCID50” value ([3]; 5 μg/ml, Example 4) was 6.5 and the “Cytopathic effect [CPE] (5days) TCID50” value ([3]; 5 μg/ml, Example 4) was 6.7. For the same substance, the “Cytopathic effect [CPE] (3days) △TCID50” value ([3]; 5 μg/ml, Example 4) was 0, the “Cytopathic effect [CPE] (5days) △TCID50” value ([3]; 5 μg/ml, Example 4) was 0.2 and the “Cytopathic effect [CPE] (3days) TCID50” value ([3]; 10 μg/ml, Example 4) was 6.3. For the same substance, the “Cytopathic effect [CPE] (5days) TCID50” value ([3]; 10 μg/ml, Example 4) was 6.3, the “Cytopathic effect [CPE] (3days) △TCID50” value ([3]; 10 μg/ml, Example 4) was 0.2 and the “Cytopathic effect [CPE] (5days) △TCID50” value ([3]; 10 μg/ml, Example 4) was 0.2. For the same substance, the “Cytopathic effect [CPE] (3days) TCID50” value ([3]; 20 μg/ml, Example 4) was 6.5, the “Cytopathic effect [CPE] (5days) TCID50” value ([3]; 20 μg/ml, Example 4) was 6.2 and the “Cytopathic effect [CPE] (3days) △TCID50” value ([3]; 20 μg/ml, Example 4) was 0. For the same substance, the “Cytopathic effect [CPE] (5days) △TCID50” value ([3]; 20 μg/ml, Example 4) was 0.3, the “Cytopathic effect [CPE] (3days) TCID50” value ([3]; 50 μg/ml, Example 4) was 5.5 and the “Cytopathic effect [CPE] (5days) TCID50” value ([3]; 50 μg/ml, Example 4) was 5.5. The “Cytopathic effect [CPE] (3days) △TCID50” value ([3]; 50 μg/ml, Example 4) was 1.0, the “Cytopathic effect [CPE] (5days) △TCID50” value ([3]; 50 μg/ml, Example 4) was 1.0 and the “Cytopathic effect [CPE] (3days) TCID50” value ([3]; 100 μg/ml, Example 4) was 3.5. For the same substance, the “Cytopathic effect [CPE] (5days) TCID50” value ([3]; 100 μg/ml, Example 4) was 3.5, the “Cytopathic effect [CPE] (3days) △TCID50” value ([3]; 100 μg/ml, Example 4) was 3.0 and the “Cytopathic effect [CPE] (5days) △TCID50” value ([3]; 100 μg/ml, Example 4) was 3.0. For the same substance, the “Cytopathic effect [CPE] (3days) TCID50” value ([3]; 100 μg/ml, Example 6) was less than 3.5, the “Cytopathic effect [CPE] (6days) TCID50” value ([3]; 100 μg/ml, Example 6) was less than 3.5 and the “Cytopathic effect [CPE] (3days) △TCID50” value ([3]; 100 μg/ml, Example 6) was greater than 3.2. For the same substance, the “Cytopathic effect [CPE] (6days) △TCID50” value ([3]; 100 μg/ml, Example 6) was greater than 3.2, the “Cytopathic effect [CPE] (3days) TCID50” value ([3]; 200 μg/ml, Example 6) was less than 3.5 and the “Cytopathic effect [CPE] (6days) TCID50” value ([3]; 200 μg/ml, Example 6) was less than 3.5. The “Cytopathic effect [CPE] (3days) △TCID50” value ([3]; 200 μg/ml, Example 6) was greater than 3.2 and the “Cytopathic effect [CPE] (6days) △TCID50” value ([3]; 200 μg/ml, Example 6) was greater than 3.2.
